Patent US6544989B2, “Benzazoles: benzoxazole, benzthiazole and benzimidazole derivatives” (Syngenta Limited, priority 1998, dated 2003)

Experiments:
Uncinula necator = assay: Fungicidal test, Uncinula necator (UNCINE) on vines, PRCO; type: in vivo; settings: METHOD 2 (unbanded)
[1] = tested on: Phytophthora infestans lycopersici; type: in vivo; settings: METHOD 2 (unbanded)
Venturia inaequalis = assay: Fungicidal test, Venturia inaequalis (VENTIN) on apples, PRCO; type: in vivo; settings: METHOD 2 (unbanded)
[2] = tested on: Erysiphe graminis f.sp. tritici; assay: Fungicidal test, Erysiphe graminis f.sp. tritici (ERYSGT) on wheat, PRCO; type: in vivo; settings: METHOD 2 (unbanded)
Septoria nodorum = assay: Fungicidal test, Septoria nodorum (LEPTNO) on wheat, PRCO; type: in vivo; settings: METHOD 2 (unbanded)
Puccinia recondita = assay: Fungicidal test, Puccinia recondita (PUCCRT) on wheat, PRCO; type: in vivo; settings: METHOD 2 (unbanded)
Meloidogyne incognita = assay: Nematode test, J2 infective juveniles of Meloidogyne incognita, mortality; settings: 12.5 ppm; J2 infective juveniles suspended in solution; mortality after three days
Pyricularia oryzae = type: in vivo; settings: METHOD 2 (unbanded)

Compound	UNCINE 1 d Prot/Foir PRCO (Uncinula necator)	PHYTIN 1 d Prot/Foir PRCO [1]	VENTIN 1 d Prot/Foir PRCO (Venturia inaequalis)	ERYSGT 1 d Prot/Foir PRCO [2]	LEPTNO 1 d Prot/Foir PRCO (Septoria nodorum)	PUCCRT 1 d Prot/Foir PRCO (Puccinia recondita)	MELGIN = Meloidogyne incognita, grading of mortality (score) (Meloidogyne incognita)	PYRIOR 1 d Prot/Foir PRCO (Pyricularia oryzae)	ERYSGT 6 hr Prot/Foir PRCO [2]
Cc1nsc(NC(=O)Cc2ccc3oc(C(C)Cl)nc3c2)c1Cl (racemic) [93(A3)]	10	49	6	32	24	38	0 (0 indicates less than 40% mortality)	–	–
CCC(Cl)c1nc2cc(CC(=O)Nc3snc(C)c3Cl)ccc2o1 (racemic) [95(A3)]	100	–	98	68	8	100	0 (0 indicates less than 40% mortality)	96	–
Cc1nsc(NC(=O)Cc2ccc3oc(C(C)C#N)nc3c2)c1Cl (racemic) [115(A3)]	2	–	15	−3	8	45	0 (0 indicates less than 40% mortality)	5	–
Cc1nc2cc(CC(=O)Nc3snc(C)c3C#N)ccc2o1 [2(A5)]	3	19	19	18	−2	28	5 (5 indicates 40-79% mortality)	31	–
CCc1nsc(NC(=O)Cc2ccc3oc(C)nc3c2)c1Cl [2(A8)]	74	74	8	54	9	100	0 (0 indicates less than 40% mortality)	75	–
CCCc1nc2ccc(CC(=O)Nc3snc(C)c3Cl)cc2[nH]1 [4(A43)]	35	0	–	–	0	31	–	38	–
CCCC(C)c1nc2cc(CC(=O)Nc3snc(C)c3Cl)ccc2o1 (centres unmarked) [12(A3)]	100	100	63	95	17	100	9 (9 indicates 80-100% mortality)	–	–
Cc1nsc(NC(=O)Cc2ccc3oc(CC(C)(C)C)nc3c2)c1C#N [15(A5)]	83	45	3	15	−2	84	0 (0 indicates less than 40% mortality)	81	–
CCc1nsc(NC(=O)Cc2ccc3oc(CC(C)(C)C)nc3c2)c1Cl [15(A8)]	100	99	24	80	−2	–	0 (0 indicates less than 40% mortality)	81	–
Cc1nsc(NC(=O)Cc2ccc3nc(CC(C)(C)C)[nH]c3c2)c1Cl [15(A43)]	63	80	–	–	0	–	–	63	–
Cc1nsc(N(CC(F)(F)F)C(=O)Cc2ccc3oc(CC(C)(C)C)nc3c2)c1Cl [15(H3)]	63	–	0	16	2	29	0 (0 indicates less than 40% mortality)	46	–
Cc1nsc(NC(=O)Cc2ccc3oc(C4CC4)nc3c2)c1Cl [21(A3)]	44	–	50	35	14	100	0 (0 indicates less than 40% mortality)	92	–
Cc1nsc(NC(=O)Cc2ccc3oc(C4CCCCC4)nc3c2)c1Cl [35((A3)]	100	–	70	–	–	–	–	98	–
Cc1nsc(NC(=O)Cc2ccc3oc(C4(C)CCCCC4)nc3c2)c1Cl [36(A3)]	99	100	44	72	2	91	0 (0 indicates less than 40% mortality)	–	–
Cc1nsc(NC(=O)Cc2ccc3oc(CC4CCCC4)nc3c2)c1Cl [42(A3)]	100	100	74	92	11	99	0 (0 indicates less than 40% mortality)	–	92
Cc1nsc(NC(=O)Cc2ccc3oc(C=Cc4ccc([N+](=O)[O-])cc4)nc3c2)c1Cl [63(A3)]	14	66	13	40	2	69	–	–	–
Cc1nsc(NC(=O)Cc2ccc3oc(C(F)(F)F)nc3c2)c1Cl [75(A3)]	53	–	15	90	27	94	0 (0 indicates less than 40% mortality)	78	–
Cc1nsc(NC(=O)Cc2ccc3oc(C(F)(F)C(F)F)nc3c2)c1Cl [79(A3)]	90	–	88	100	14	100	0 (0 indicates less than 40% mortality)	98	–
COCc1nc2cc(CC(=O)Nc3snc(C)c3Cl)ccc2o1 [130(A3)]	86	–	60	87	21	100	0 (0 indicates less than 40% mortality)	93	–
Cc1nsc(NC(=O)Cc2ccc3oc(CSc4ccccc4)nc3c2)c1Cl [173(A3)]	−12	77	50	16	2	63	0 (0 indicates less than 40% mortality)	–	–
Cc1nsc(NC(=O)Cc2ccc3oc(Cc4c(F)c(F)c(F)c(F)c4F)nc3c2)c1Cl [239(A3)]	51	–	5	23	–	3	0 (0 indicates less than 40% mortality)	11	–
Cc1nsc(NC(=O)Cc2ccc3oc(-c4c(Cl)cc(C(F)(F)F)cc4Cl)nc3c2)c1Cl [244(A3)]	–	–	45	3	−2	84	0 (0 indicates less than 40% mortality)	−2	–
Cc1nsc(NC(=O)Cc2ccc3oc(C(c4ccccc4)c4ccccc4)nc3c2)c1Cl [246(A3)]	−7	79	13	16	27	13	0 (0 indicates less than 40% mortality)	–	–
Cc1nsc(NC(=O)Cc2ccc3oc(-c4ccccc4Cl)nc3c2)c1Cl [253(A3)]	100	98	34	94	8	99	0 (0 indicates less than 40% mortality)	–	94
COc1ccccc1-c1nc2cc(CC(=O)Nc3snc(C)c3Cl)ccc2o1 [305(A3)]	19	74	−6	16	−2	81	0 (0 indicates less than 40% mortality)	–	16
Cc1nsc(NC(=O)Cc2ccc3oc(-c4cccs4)nc3c2)c1Cl [330(A3)]	14	99	6	87	37	99	0 (0 indicates less than 40% mortality)	–	–
Cc1nsc(NC(=O)Cc2ccc3oc(-c4ccncc4)nc3c2)c1Cl [339((A3)]	26	–	8	–	–	–	–	33	–
